Reference: publication PMC7119080 (Bioorganic & Medicinal Chemistry Letters, 2005)
pIC50: −log10 of the molar value.

Key:
Chymotrypsin = Chymotrypsin (Bos taurus, UniProt P00766); assay: biochemical
Papain = Papain (Carica papaya, UniProt P00784); assay type: biochemical
Chain of Papain (P00784 134-345 limits assumed): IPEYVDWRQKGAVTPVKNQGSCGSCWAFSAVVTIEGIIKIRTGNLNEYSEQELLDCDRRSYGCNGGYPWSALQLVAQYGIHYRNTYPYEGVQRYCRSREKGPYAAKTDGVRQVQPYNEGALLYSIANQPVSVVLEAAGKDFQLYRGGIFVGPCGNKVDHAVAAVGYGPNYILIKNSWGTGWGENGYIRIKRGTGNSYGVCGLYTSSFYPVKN

Compound	pIC50 (Chymotrypsin)	more potent inhibition for SARS CoV 3CL^pro than for papain (Papain)
O=C1C(=O)N(Cc2cc3ccccc3s2)c2c(Br)cccc21 [Compound 4k]	4.98	90–105 times
O=C1C(=O)N(Cc2cc3ccccc3s2)c2ccc(I)cc21 [Compound 4o]	–	90–105 times
